Assay results as given in US20210205291A1, “NITROGENOUS HETEROCYCLIC AMIDE DERIVATIVE, PREPARATION METHOD THEREOF, AND PHARMACEUTICAL APPLICATION” (Sichuan Haisco Pharmaceutical Co., Ltd., priority 2016, published 2021).

Assays:
[1] = molecular target: human muscarine receptor M3 (Homo sapiens, UniProt P20309); experiment: Inhibitory activity against human muscarine receptor M3 (aequorin luminescence in CHO cells, acetylcholine challenge); format: cell-based; details: CHO cells expressing hM3 and apo-Aequorin; acetylcholine chloride 112.92 nM
Experimental: CHO cells (PerkinElmer, ES-212-AF) that stably express human muscarine receptor 3 (hM3) and apo-Aequorin were cultured at 37° C. 5% CO2 in Ham's F12 media (Invitrogen 12500-062) containing 10% fetal bovine serum (FBS) (Gibico 10099-141), 400 μg/mL G418 (sigma G5013) and 250 μg/mL Zeocin (Invivogen ant-zn-5p), until a confluency of 90% to 100% was reached. Cells were separated by rinsing with PBS/5 mM EDTA, collected by centrifugation, re-suspended in phenol red-free Ham's F12 media (Invitrogen 12500-062) containing 0.1% BSA (BOVOGEN BSAS 100), and counted. The cell concentration was adjusted to 1×10^6 cells/ml. 15 ml of the cell suspension was added to a 50-ml centrifuge tube, to which Coelenterazine-h (Promega S2011) was added to a final concentration of 5 μM. The tube was wrapped with a tin foil to shade light, and incubated on a rotary shaker at 20° C. for 4 hours. The cells were diluted with a phenol red-free/0.1% BSA Ham's F12 medium to a final concentration of 5.0/10^5 cells/ml, placed on a rotary shaker in low-speed rotation, and incubated at room temperature for at least 1 hour. The compounds of the Examples were formulated with DMSO into 10 mM stock solutions, diluted in series with a phenol red-free/0.1% BSAHam's F12 medium (log(M): −7, −8, −9, −10, −11), and added to a 96-well plate at 50 μl/well. 50 μl cell suspension was further added to each well (25,000 cells/well) and incubated for 15 min at room temperature. The 96-well plate was placed under a microplate reader (Perkin Elmer, Envision), and a 50 μl solution of acetylcholine chloride (Sigma A6625) was added to each well at a concentration of 112.92 nM (hM3) with a microplate reader sample injector. The luminescence was recorded over 20 seconds, and IC50 values were calculated and analyzed by Origin 7.5.

[2] = Pharmacokinetic evaluation in SD rats; format: in vivo
Experimental: 18 male SD rats, eight weeks old, were purchased from Vital River Laboratory Animal Technology Co., Ltd., and adapted for 3 days before the experiments were started. The SD rats were randomized into 3 groups, fasted one day before administration but allowed access to water. The 3 groups of animals were administrated with 1 mg/kg compound either by tail vein injection (iv) or by intratracheal (it) administration. The compounds were formulated into 20 mg/ml stock solutions with 83% ethanol and 17% Tween80. For intravenous injection, 0.1 ml of the stock solution was diluted to the final volume with 9.9 ml physiological saline. For intratracheal administration, 0.25 ml of the stock solution was diluted with 4.75 ml physiological saline to the final volume. For the group for intravenous injection, right before administration (0 h) and 5 min, 15 min, 30 min, 1.0, 2.0, 4.0, 8.0, 24.0 h after administration, 0.1 ml blood was taken from the orbit, heparin was added for anticoagulation, and plasma was separated after centrifugation at 4° C., 3000 rpm for 10 min and stored at −80° C. before testing. For the group for intratracheal administration, right before administration and 5 min, 15 min, 30 min, 1.0, 2.0, 4.0, 8.0, 24.0 h after administration, blood was taken and treated the same way as for the group for intravenous injection. 30 μl plasma of rat at each of the time points was mixed with 200 μl acetonitrile solution containing an internal standard, vortexed for 1 min, and centrifuged at 11300 rpm for 10 min, and 175 μl of the supernatant was added to a 96-well plated for LC-MS/MS analysis. The major pharmacokinetic parameters were analyzed using the software WinNonlin 6.3 at the non-compartment mode.

[3] = test system: methacholine-induced bronchoconstriction in guinea pigs; experiment: Inhibition against methacholine-induced bronchoconstriction in guinea pigs (PenH, whole-body plethysmograph); format: in vivo; details: intratracheal, 0.3 nmol per animal, 3 mg/ml methacholine; for PenH Inhibition (%) 4 h: 4 h after administration; for PenH Inhibition (%) 24 h: 24 h after administration
Experimental: 8-week-old guinea pigs (all male) were purchased from Vital River Laboratory Animal Technology Co., Ltd., and adapted for 3 days before the experiments were started. The test compounds were formulated into 0.6 mM stock solutions with 83% dry ethanol+17% Tween80, which were diluted 500 times before administration. Before administration, the animals were anesthetized with 5% isoflurane by using a small-animal anesthetic apparatus (Matrx: VME2), wherein the anesthetic duration was 1.5 to 2 min. The anesthetized guinea pigs were fixed on a tracheal cannula platform, and intratracheally administrated with the compounds at 250 μl/animal by using a rat liquid-aerosol administration kit (penn-century; MSA-250-R). 4 hours and 24 hours after administration, the enhanced pauses (PenH) of the guinea pigs were measured in a whole-body plethysmograph (DSI; GS220A12-R7B). 3 mg/ml methacholine (Mch) was administrated by nebulization for 36 sec, and data was recorded over 7 min. The average of PenH was calculated (see J Pharmacol Exp Ther 345:260-270).
PenH calculation formula: PenH=PEP/PIP*Pause; Pause=(Te−Tr)/Tr
Te: Duration of expiratory phase (s)
Tr: Duration of relaxation phase (s)
PEP: Expiratory peak flow rate (ml/s)
PIP: Inspiratory peak flow rate (ml/s)

[4] = molecular target: human β2-adrenergic receptor (Homo sapiens, UniProt P07550); experiment: Agonistic activity on human β2-adrenergic receptor (LANCE Ultra cAMP Assay in CHO cells); format: cell-based; details: CHO cells expressing hβ2; cAMP TR-FRET
Experimental: The agonistic activity of the compounds of the Examples on the human adrenergic receptor was measured by the LANCE Ultra cAMP Assay.
CHO cells (PerkinElmer, ES-034-AF) that stably express human adrenergic receptor (hβ2) were cultured at 37° C. 5% CO2 in MEM-alpha media (Invitrogen 12561-056) containing 10% fetal bovine serum (FBS) (Gibico 10099-141) and 250 μg/ml Zeocin (InvivoGen ant-zn-5p), until a confluency of 90% to 100% was reached. Then the agonism on cAMP was tested by using a LANCE Ultra cAMP Assay kit (PerkinElmer TRF0263). Cells were separated with PBS/5 mM EDTA, collected by centrifugation, re-suspended in Stimulation Buffer (1×HBSS, 5 mM HEPES, 0.5 mM IBMX, 0.1% BSA, pH=7.4), and adjusted to a cell concentration of 6×10^5 cells/ml. The compounds of the Examples were formulated with DMSO into 10 mM stock solutions, diluted in series with Stimulation Buffer, and added to a 384-well plate at 5 μl/well. 5 μl cell suspension was further added to each well (3,000 cells/well), incubated for 30 min at room temperature, then 5 μl of a 4×Eu-cAMP trace working solution was added to each well, and then 5 μl of a 4×Ulight-anti-cAMP working solution was added to each well, followed by incubation at room temperature for 1 hour. The 384-well plate was detected for TR-FRET under a microplate reader (Perkin Elmer, Envision), and EC50 values were calculated and analyzed by Origin 7.5.

[5] = Sprague-Dawley (SD), rat, inhaled or intranasal, male SD rats, it (intratracheal), 1 mg/kg, plasma
[6] = Sprague-Dawley (SD), rat, male SD rats, iv (tail vein), 1 mg/kg, plasma

Sequence of human β2-adrenergic receptor (P07550 whole entry): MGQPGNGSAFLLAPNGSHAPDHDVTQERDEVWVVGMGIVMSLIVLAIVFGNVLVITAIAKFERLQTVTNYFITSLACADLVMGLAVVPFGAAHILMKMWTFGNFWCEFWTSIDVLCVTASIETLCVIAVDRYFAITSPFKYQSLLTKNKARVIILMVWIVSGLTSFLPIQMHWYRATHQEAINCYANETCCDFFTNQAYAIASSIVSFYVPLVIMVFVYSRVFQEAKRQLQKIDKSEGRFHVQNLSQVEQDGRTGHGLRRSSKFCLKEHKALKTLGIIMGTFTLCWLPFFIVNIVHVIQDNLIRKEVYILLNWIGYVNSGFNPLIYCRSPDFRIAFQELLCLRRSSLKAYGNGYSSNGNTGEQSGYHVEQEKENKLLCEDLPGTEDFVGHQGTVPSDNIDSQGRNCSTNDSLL
Sequence of human muscarine receptor M3 (P20309 whole entry): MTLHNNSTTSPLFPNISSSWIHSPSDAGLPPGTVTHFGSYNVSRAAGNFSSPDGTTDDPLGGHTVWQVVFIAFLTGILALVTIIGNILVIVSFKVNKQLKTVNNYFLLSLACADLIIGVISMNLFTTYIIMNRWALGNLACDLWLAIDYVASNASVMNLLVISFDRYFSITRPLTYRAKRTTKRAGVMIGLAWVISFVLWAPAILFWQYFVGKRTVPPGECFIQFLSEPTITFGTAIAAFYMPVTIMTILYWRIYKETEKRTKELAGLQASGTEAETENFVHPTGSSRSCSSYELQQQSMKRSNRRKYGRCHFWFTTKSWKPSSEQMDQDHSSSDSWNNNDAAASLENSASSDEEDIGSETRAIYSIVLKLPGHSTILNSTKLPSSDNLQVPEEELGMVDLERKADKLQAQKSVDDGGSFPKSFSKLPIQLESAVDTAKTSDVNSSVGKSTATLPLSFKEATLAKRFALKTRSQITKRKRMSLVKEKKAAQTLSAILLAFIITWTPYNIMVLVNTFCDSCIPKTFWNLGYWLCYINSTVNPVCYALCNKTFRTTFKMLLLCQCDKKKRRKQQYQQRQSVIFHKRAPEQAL

SMILES	IC50 [1] [nM]	EC50 [4] [nM]	PenH Inhibition (%) 4 h [3] [%]	PenH Inhibition (%) 24 h [3] [%]	other results
O=C(Nc1ccccc1-c1ccccc1)OC1CCN(CCC(=O)N2CCC(C(=O)Nc3ccc(CNC[C@H](O)c4ccc(O)c5[nH]c(=O)ccc45)cc3)CC2)CC1 [Compound 1, [1-[3-[4-[[4-[[[(2R)-2-hydroxy-2-(8-hydroxy-2-oxo-1H-quinolin-5-yl)ethyl]amino]methyl]phenyl]carbamoyl]-1-piperidyl]-3-oxo-propyl]-4-piperidyl]N-(2-phenylphenyl)carbamate; ditrifluoroacetic acid]	14.4				
COc1cc(NC(=O)OCC2CCN(C(=O)CCN3CCC(OC(=O)Nc4ccccc4-c4ccccc4)CC3)CC2)c(Cl)cc1CNC[C@H](O)c1ccc(O)c2[nH]c(=O)ccc12 [Compound 3, [1-[3-[4-[(2-phenylphenyl)carbamoyloxy]-1-piperidyl]propanoyl]-4-piperidyl]methyl N-[2-chloro-4-[[[(2R)-2-hydroxy-2-(8-hydroxy-2-oxo-1H-quinolin-5-yl)ethyl]amino]methyl]-5-methoxy-phenyl]carbamate; di(2,2,2-trifluoroacetic acid)]	3.76	10.2			
CN(CCNC[C@H](O)c1ccc(O)c2[nH]c(=O)ccc12)C(=O)C1CCN(C(=O)CCN2CCC(OC(=O)Nc3ccccc3-c3ccccc3)CC2)CC1 [Compound 6, [1-[3-[4-[2-[[(2R)-2-hydroxy-2-(8-hydroxy-2-oxo-1H-quinolin-5-yl)ethyl]amino]ethyl-methyl-carbamoyl]-1-piperidyl]-3-oxo-propyl]-4-piperidyl]N-(2-phenylphenyl)carba mate; ditrifluoroacetic acid]	6.49	17.4			
O=C(CC1CCN(C(=O)CCN2CCC(OC(=O)Nc3ccccc3-c3ccccc3)CC2)CC1)Nc1ccc(CNC[C@H](O)c2ccc(O)c3[nH]c(=O)ccc23)cc1 [Compound 9, [1-[3-[4-[2-[4-[[[(2R)-2-hydroxy-2-(8-hydroxy-2-oxo-1H-quinolin-5-yl)ethyl]amino]methyl]anilino]-2-oxo-ethyl]-1-piperidyl]-3-oxo-propyl]-4-piperidyl]N-(2-phenylphenyl)carbamate; di(trifluoroacetic acid)]	3.73	3.96			

These reach a lower IC50 [1]. Values come first.

IC50 [1] [nM]	EC50 [4] [nM]	SMILES	PenH Inhibition (%) 4 h [3] [%]	PenH Inhibition (%) 24 h [3] [%]	other results
1.69	1.85	O=C(Nc1ccc(CNC[C@H](O)c2ccc(O)c3[nH]c(=O)ccc23)cc1)OCC1CCN(C(=O)CCN2CCC(OC(=O)Nc3ccccc3-c3ccccc3)CC2)CC1 [Compound 2, [1-[3-[4-[(2-phenylphenyl)carbamoyloxy]-1-piperidyl]propanoyl]-4-piperidyl]methyl N-[4-[[[(2R)-2-hydroxy-2-(8-hydroxy-2-oxo-1H-quinolin-5-yl)ethyl]amino]methyl]phenyl]carbamate; ditrifluoroacetic acid]	94.8	53.8	AUC(0-inf) [2, 5]: 11.6 ng·h/mL; Cmax [2, 5]: 7.08 ng/mL; Tmax [2, 5]: 34.8 min; half-life [2, 5]: 45 min; AUC(0-inf) [2, 6]: 9.27 ng·h/mL; half-life [2, 6]: 27.6 min; in vivo exposure level ([2]; after iv and it administrations, rats, in words): low in vivo exposure level
2.26		COc1cc(NC(=O)OC[C@@H]2CCN(C(=O)CCN3CCC(OC(=O)Nc4ccccc4-c4ccccc4)CC3)C2)c(Cl)cc1CNC[C@H](O)c1ccc(O)c2[nH]c(=O)ccc12 [Compound 4, [(3R)-1-[3-[4-[(2-phenylphenyl)carbamoyloxy]-1-piperidyl]propanoyl]pyrrolidin-3-yl]methyl N-[2-chloro-4-[[[(2R)-2-hydroxy-2-(8-hydroxy-2-oxo-1H-quinolin-5-yl)ethyl]amino]methyl]-5-methoxy-phenyl]carbamate; di(2,2,2-trifluoro)acetic acid]			
0.89		COc1cc(NC(=O)OC[C@H]2CCN(C(=O)CCN3CCC(OC(=O)Nc4ccccc4-c4ccccc4)CC3)C2)c(Cl)cc1CNC[C@H](O)c1ccc(O)c2[nH]c(=O)ccc12 [Compound 5, [(3S)-1-[3-[4-[(2-phenylphenyl)carbamoyloxy]-1-piperidyl]propanoyl]pyrrolidin-3-yl]methyl N-[2-chloro-4-[[[(2R)-2-hydroxy-2-(8-hydroxy-2-oxo-1H-quinolin-5-yl)ethyl]amino]methyl]-5-methoxy-phenyl]carbamate; ditrifluoroacetic acid]	96.4	78.6	
1.31	6.01	O=C(Nc1ccc(CNC[C@H](O)c2ccc(O)c3[nH]c(=O)ccc23)cc1F)OCC1CCN(C(=O)CCN2CCC(OC(=O)Nc3ccccc3-c3ccccc3)CC2)CC1 [Compound 7, [1-[3-[4-[(2-phenylphenyl)carbamoyloxy]-1-piperidyl]propanoyl]-4-piperidyl]methyl N-[2-fluoro-4-[[[(2R)-2-hydroxy-2-(8-hydroxy-2-oxo-1H-quinolin-5-yl)ethyl]amino]methyl]phenyl]carbamate; ditrifluoroacetic acid]	72.1	55.8	
3.33	3.34	O=C(Nc1ccc(CNC[C@H](O)c2ccc(O)c3[nH]c(=O)ccc23)c(F)c1)OCC1CCN(C(=O)CCN2CCC(OC(=O)Nc3ccccc3-c3ccccc3)CC2)CC1 [Compound 8, [1-[3-[4-[(2-phenylphenyl)carbamoyloxy]-1-piperidyl]propanoyl]-4-piperidyl]methyl N-[3-fluoro-4-[[[(2R)-2-hydroxy-2-(8-hydroxy-2-oxo-1H-quinolin-5-yl)ethyl]amino]methyl]phenyl]carbamate; ditrifluoroacetic acid]	78.2	45.3	
